Laboratory results published in patent US20230212202A1, “TREATMENT OF MGMT DEFICIENT CANCER WITH 2-FLUOROETHYL-SUBSTITUTED NITROSOUREAS AND OTHER COMPOUNDS” (YALE UNIVERSITY, priority 2021, published 2023).

How the values were obtained:
LN229 MGMT-/MMR- cells [1] = experiment: Short-term cell viability assay; assay type: cell-based, human; conditions: Homo sapiens, LN-229
[2] = tested on: LN229 MGMT-/MMR- intracranial tumors; experiment: Intracranial tumor model; assay type: in vivo, mouse; conditions: 25 mg/kg IP M-F × 1 week
[3] = tested on: FANCD2 ubiquitination in LN229 MGMT+/-, MMR+/- cells; experiment: Western blot analysis of FANCD2 ubiquitination; assay type: cell-based, human
Protocol: Western Blotting. For phospho-protein analysis experiments, cells were lysed in 1X RIPA buffer (Cell Signaling Technology, #9806) supplemented with 1X Protease Inhibitor Cocktail (Roche) and 1X PhosSTOP Phosphatase Inhibitor Cocktail (Sigma). For all other western blot analyses, cells were lysed in lysis buffer (50 mM HEPES, 250 mM NaCl, 5 mM EDTA, 1% NP-40) supplemented with 1X Protease Inhibitor Cocktail (Roche). The de-ubiquitination inhibitor N-ethylmaleimide (NEM, 4 mM) was added in FANCD2 ubiquitination analysis experiments. Proteins were separated using NuPAGE 4-12% Bis-Tris or 3-8% Tris-Acetate Gels (Invitrogen) and transferred to Immobilon-P PVDF membrane (Millipore) for western blotting. Membranes were blocked with 5% milk in TBS-T for 1 h prior to primary antibody addition overnight at 4° C. […] Where shown, bands were quantified using ImageJ software.

[4] = tested on: PD20 cells, FANCD2-/- or +FANCD2; experiment: Short-term viability assay; assay type: cell-based, human; conditions: PD20 FANCD2-/- vs +FANCD2
[5] = tested on: DLD1 MSH6-deficient cells; experiment: Short-term viability assay with or without O6BG; assay type: cell-based, human; conditions: with or without O6BG-induced MGMT depletion
From the text: (§1) Short-term Cell Viability Assay.

[6] = tested on: HCT116 MLH1-/- cells or HCT116 +Chr3 cells; experiment: Short-term viability assay with or without O6BG; assay type: cell-based, human
From the text: as §1

[7] = tested on: PEO4 (BRCA2+) and PEO1 (BRCA2-/-) cells; experiment: Short-term viability assay with or without O6BG; assay type: cell-based, human
[8] = tested on: LN229 MGMT-/MMR+ and MGMT-/MMR- flank tumors; experiment: Flank tumor second study: regimens, schedules and routes; assay type: in vivo, mouse; conditions: 5, 15, 25 mg/kg; MWF × 3 weeks, M-F × 1 week; PO, IP
From the text: In a second study, mice were randomized and administered either KL-50 (4a) or vehicle (10% cyclodextrin) by oral gavage or intraperitoneal injection on either M-F × 1 or MWF × 3 cycles at 5, 15, or 25 mgs/kg. Caliper measurements were obtained during the dosing period and at least two weeks following treatment. Mice were euthanized if body weight loss exceeded 20% or if tumor volume increased to greater than 2000 mm^3.

LN229 MGMT-/MMR- cells [9] = experiment: IR alkaline comet assay; assay type: cell-based, human; conditions: 200 µM, 2-24 h
[10] = tested on: LN229 MGMT+/-, MMR+/- cells; experiment: Clonogenic survival assay; assay type: cell-based, human
Protocol: Clonogenic Cell Survival Assay. Cells were trypsinized, washed, counted, and diluted in a medium containing various concentrations of drug. They were then immediately seeded in six-well plates in triplicate at three-fold dilutions, ranging from 9000 to 37 cells per well. Depending on colony size, these plates were kept in the incubator for 10 to 14 days. After incubation, colonies were washed in phosphate-buffered saline (PBS), stained with crystal violet, counted, and quantified.

In the case of `NC(=O)c1ncn2c(=O)n(CCF)nnc12` [KL-50], the IC50 (LN229 MGMT-/MMR- cells [1]) is reported as ~20 µM, the intracranial tumor growth [2] is reported as “effective” and the FANCD2 ubiquitination [3] is reported as “observed specifically in MGMT- cells”. For the same molecule, the “sensitivity of FANCD2-deficient cells” value [4] was “hypersensitive”, the “activity in DLD1 cells” value [5] was “toxic to these cells, but only after O^6BG-induced MGMT depletion” and the “activity in HCT116 cells” value [6] was “selective tumor cell killing specifically in the setting of O^6BG-induced MGMT suppression”. For the same molecule, the “sensitivity of BRCA2-/- cells” value [7] was “BRCA2 loss enhanced the toxicity”, the “therapeutic index (TI)” value ([7]; PEO1/4 model) was 62 fold and the “efficacy and toxicity across regimens” value [8] was “effective and non-toxic”. For the same molecule, the “DNA damage in unirradiated samples, time course” value (LN229 MGMT-/MMR- cells [9]; 0 Gy) was “maximal damage at 2 h”, the “DNA mobility after IR, time course” value (LN229 MGMT-/MMR- cells [9]; 10 Gy) was “time-dependent decrease in DNA mobility” and the “clonogenic survival, MGMT+ cells” value ([10]; LN229 MGMT+ cells) was “minimal toxicity to MGMT+ cells at doses up to at least 200 µM”. The “clonogenic survival, MGMT- cells” value ([10]; LN229 MGMT- cells, MMR+/-) was “robust antitumor activity in MGMT- cells, independent of MMR status”.
